Test results reported in article PMC4142572 (Bioorganic & medicinal chemistry letters, 2014).
pIC50: −log10 of the molar value.

Biological target: hPDE4B (Homo sapiens, UniProt Q07343)
Assay: Enzymatic inhibition of PDE4B long isoform in vitro
Assay type: biochemical
Conditions: for PDE4B-subtype selectivity: enzymatic assays using PDE4B1 and PDE4D7

Chain of hPDE4B (Q07343 whole entry, canonical isoform): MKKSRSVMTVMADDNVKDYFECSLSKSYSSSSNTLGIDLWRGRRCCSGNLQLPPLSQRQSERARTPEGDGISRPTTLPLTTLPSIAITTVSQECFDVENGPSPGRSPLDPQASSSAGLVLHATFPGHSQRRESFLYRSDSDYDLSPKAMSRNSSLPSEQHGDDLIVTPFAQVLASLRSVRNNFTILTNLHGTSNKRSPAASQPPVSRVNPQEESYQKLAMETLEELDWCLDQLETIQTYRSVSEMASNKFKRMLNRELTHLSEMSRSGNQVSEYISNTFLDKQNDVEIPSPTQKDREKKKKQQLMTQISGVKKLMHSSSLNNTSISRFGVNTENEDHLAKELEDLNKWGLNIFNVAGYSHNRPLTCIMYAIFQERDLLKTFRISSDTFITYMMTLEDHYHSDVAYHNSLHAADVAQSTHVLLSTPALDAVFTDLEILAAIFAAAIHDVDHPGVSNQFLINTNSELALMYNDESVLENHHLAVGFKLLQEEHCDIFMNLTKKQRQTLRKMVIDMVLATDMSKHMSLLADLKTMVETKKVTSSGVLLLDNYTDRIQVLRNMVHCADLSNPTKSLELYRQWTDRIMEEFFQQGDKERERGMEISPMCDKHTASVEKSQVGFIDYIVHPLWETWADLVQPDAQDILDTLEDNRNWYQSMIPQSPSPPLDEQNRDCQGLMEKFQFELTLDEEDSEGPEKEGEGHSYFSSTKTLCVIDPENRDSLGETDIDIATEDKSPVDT

| Compound | PDE4B-subtype selectivity | pIC50 |
| --- | --- | --- |
| CCOc1nc(Nc2ccc(OC)cc2)nc(OCC)n1 [Compound 1] | does not show PDE4B-subtype selectivity |  |
| CCc1c(C)nc(-c2ccc(Cl)s2)nc1Nc1ccc(CC(=O)O)cc1 [Compound 2, reference compound] | highly selective for PDE4B |  |
| O=C(O)Cc1ccc(Nc2nc(-c3ccc(Cl)cc3)nc(C3CC3)n2)cc1 [Compound 9] |  | 6.11 |
